According to article PMC3561256, “Anti-infectious and anti-inflammatory effects of peptide fragments sequentially derived from the antimicrobial peptide centrocin 1 isolated from the green sea urchin, Strongylocentrotus droebachiensis” (AMB Express, 2012):

What was measured:
[1] = system: S. aureus (ATCC 12600); experiment: Minimal microbicidal concentration (MMC99) assay; assay type: cell-based, Staphylococcus aureus
Protocol: (§1) All the synthesised peptides were tested for their in vitro microbicidal activity against S. aureus (American Type Culture Collection (ATCC) 12600) and P. aeruginosa (ATCC 15442) using a minimal microbicidal concentration (MMC) assay as previously described (Haversen et al. [2010]). Bacteria were cultured in 3.7% brain heart infusion (BHI) broth (Difco, BD Diagnostics, Franklin Lakes, NJ) on a shaker at 250 rpm overnight at 37°C. The culture was diluted 1:10 in fresh 3.7% BHI and incubated for two additional hours to reach log-phase growth. The bacteria were pelleted by centrifugation at 900 × g and suspended in 0.037% BHI to a concentration of 10^7 CFU/mL, estimated by measuring optical density at 600 nm (OD600). To investigate the influence of physiological conditions on microbicidal effect of the peptides, four different assay media were used: 0.037% BHI, 0.037% BHI supplemented with 85 or 150 mM sodium chloride (NaCl), and 50% heat inactivated simulated wound fluid (h.i. SWF) composed of a 50:50 mixture of 0.1% peptone (Oxoid, Basingstoke, UK) in 150 mM NaCl and fetal bovine serum (FBS; PAA Laboratories GmbH, Pasching, Austria), diluted two times in ultra pure water. The peptides were serially diluted by twofold steps from 200 to 1.56 mg/L in the assay media used, and 100 μL of the peptide solutions were mixed with 5 μL bacterial suspensions in a 96 well plate (Nunc, Roskilde, Denmark) and incubated at 37°C for two hours. An aliquot of 5 μL from each well was aspirated and added as drops onto blood agar plates (Columbia agar; Oxoid, Basingstoke, UK) supplemented with 5% defibrinated horse blood (Swedish National Veterinary Institute (SVA), Uppsala, Sweden), and the plates were incubated overnight at 37°C. All samples were processed as duplicates. The minimal test compound concentration causing ≥99% reduction of bacteria was defined as the MMC99. The concentration of the bacterial suspension used in the assay was confirmed by viable count estimation on blood agar plates (Oxoid).
(§2) CEN1 HC was further screened for microbicidal activity against a panel of microbial strains using the MMC99 assay, as described above, except using only two different assay media; 0.037% BHI and 50% h.i. SWF. The following microbial strains were tested for sensitivity: S. aureus (ATCC 12600), MRSA (ATCC 33591), Staphylococcus epidermidis (ATCC 12228), Streptococcus pyogenes (ATCC 12344), Propionibacterium acnes (ATCC 6919) Escherichia coli (ATCC 11775), P. aeruginosa (ATCC 15442), Klebsiella pneumoniae (Culture collection, University of Gothenburg (CCUG) 59413, clinical isolate resistant to penicillins, cephalosporins, aztreonam and carbapenems, with the reference strain ATCC 13883), Acinetobacter baumannii (CCUG 58437, clinical isolate resistant to tobramycin, trimsulfa, ciprofloxacin, cefotaxim, ceftazidim, meropenem, pipera/tazobactam, with the reference strain ATCC 19606) and the yeast strain Candida albicans (ATCC 64549). Mupirocin (GlaxoSmithKline) and fusidic acid (LEO Pharma) were used as comparative control antibiotics.

[2] = system: P. aeruginosa (ATCC 15442); experiment: Minimal microbicidal concentration (MMC99) assay; assay type: cell-based, Pseudomonas aeruginosa; settings: for MMC99, P. aeruginosa ATCC 15442, 0.037% BHI / MMC99, P. aeruginosa ATCC 15442, 50% h.i. SWF: Table 3 panel
Protocol: as §1, §2

[3] = system: Acinetobacter baumannii (CCUG 58437); experiment: Minimal microbicidal concentration (MMC99) assay; assay type: cell-based; settings: Table 3 panel, multiresistant clinical isolate, up to 200 mg/L, duplicates, maximum of at least two independent experiments
Protocol: as §1, §2

[4] = system: Klebsiella pneumoniae (CCUG 59413); experiment: Minimal microbicidal concentration (MMC99) assay; assay type: cell-based; settings: Table 3 panel, multiresistant clinical isolate, up to 200 mg/L, duplicates, maximum of at least two independent experiments
Protocol: as §1, §2

[5] = system: Escherichia coli (ATCC 11775); experiment: Minimal microbicidal concentration (MMC99) assay; assay type: cell-based; settings: Table 3 panel, up to 200 mg/L, duplicates, maximum of at least two independent experiments
Protocol: as §1, §2

[6] = system: Streptococcus pyogenes (ATCC 12344); experiment: Minimal microbicidal concentration (MMC99) assay; assay type: cell-based; settings: Table 3 panel, up to 200 mg/L, duplicates, maximum of at least two independent experiments
Protocol: as §1, §2

[7] = system: Staphylococcus epidermidis (ATCC 12228); experiment: Minimal microbicidal concentration (MMC99) assay; assay type: cell-based; settings: Table 3 panel, up to 200 mg/L, duplicates, maximum of at least two independent experiments
Protocol: as §1, §2

[8] = system: Candida albicans (ATCC 64549); experiment: Minimal microbicidal concentration (MMC99) assay; assay type: cell-based; settings: Table 3 panel, yeast, up to 200 mg/L, duplicates, maximum of at least two independent experiments
Protocol: as §1, §2

[9] = system: MRSA (ATCC 33591); experiment: Minimal microbicidal concentration (MMC99) assay; assay type: cell-based, methicillin-resistant S. aureus; settings: Table 3 panel, up to 200 mg/L, duplicates, maximum of at least two independent experiments
Protocol: as §1
CEN1 HC was further screened for microbicidal activity against a panel of microbial strains using the MMC99 assay, as described above, except using only two different assay media; 0.037% BHI and 50% h.i. SWF. […]

[10] = system: S. aureus (ATCC 12600); experiment: In vitro multistep resistance assay (MMC99 after passages); assay type: cell-based, Staphylococcus aureus
Protocol: (§3) S. aureus (ATCC 12600) and MRSA (ATCC 33591) were cultured according to the protocol described above and diluted to 10^8 CFU/mL in 0.037% BHI as estimated by measuring OD600. The multistep resistance assay was performed as previously described (Kosowska-Shick et al. [2006]). Peptide dilutions were prepared in twofold dilution steps in the concentration range from 0.75 mg/L to 96 mg/L in a volume of 1 mL using 0.37% BHI medium. The same peptide concentration range was used during all passages and new peptide dilutions were prepared each day from stock solutions. Mupirocin (Applichem), the active substance in the conventional topical antibiotic Bactroban, was used as a comparator. The antibiotic control was handled in the same way as the peptides except that the concentration range of mupirocin was 0.003 mg/L to 3 mg/L.
(§4) An aliquot of 10 μL (10^8 CFU/mL) of the bacterial suspension was added to the peptide dilutions, to the positive antibiotic control, and to a negative control incubated without peptide, and the suspensions were incubated at 37°C for 24 h. Turbidity of the overnight cultures was determined by OD600 measurements. The OD600 of bacteria/peptide suspensions was calculated by subtracting the OD600 of the peptide mixed with medium from the OD600 measured on the overnight cultures. […]

[11] = system: Propionibacterium acnes (ATCC 6919); experiment: Minimal microbicidal concentration (MMC99) assay; assay type: cell-based; settings: Table 3 panel, up to 200 mg/L, duplicates, maximum of at least two independent experiments
Protocol: as §1, §2

[12] = system: MRSA (ATCC 33591); experiment: In vitro multistep resistance assay (MMC99 after passages); assay type: cell-based, methicillin-resistant S. aureus
Protocol: as §3, §4

[13] = Table 2 screen, medium 0.037% BHI + 85 mM NaCl, 2 h at 37°C, up to 200 mg/L, duplicates, maximum of at least two independent experiments
[14] = Table 2 screen, medium 0.037% BHI + 150 mM NaCl, 2 h at 37°C, up to 200 mg/L, duplicates, maximum of at least two independent experiments
[15] = Table 3 panel, up to 200 mg/L, duplicates, maximum of at least two independent experiments
[16] = up to 200 mg/L, duplicates, maximum of at least two independent experiments
[17] = after 14 days of cultivation under selection pressure, 0.37% BHI, 24 h passages
[18] = multistep resistance assay, before passaging (day 0)

Molecule	MMC99, A. baumannii CCUG 58437, 0.037% BHI [3]	MMC99, A. baumannii CCUG 58437, 50% h.i. SWF [3]	MMC99, K. pneumoniae CCUG 59413, 0.037% BHI [4]	MMC99, K. pneumoniae CCUG 59413, 50% h.i. SWF [4]	MMC99, E. coli ATCC 11775, 0.037% BHI [5]	MMC99, E. coli ATCC 11775, 50% h.i. SWF [5]	MMC99, S. pyogenes ATCC 12344, 0.037% BHI [6]	MMC99, S. pyogenes ATCC 12344, 50% h.i. SWF [6]	MMC99, S. epidermidis ATCC 12228, 0.037% BHI [7]	MMC99, S. epidermidis ATCC 12228, 50% h.i. SWF [7]	MMC99, C. albicans ATCC 64549, 0.037% BHI [8]	MMC99, C. albicans ATCC 64549, 50% h.i. SWF [8]	MMC99, S. aureus ATCC 12600, 50% h.i. SWF [1, 15]	MMC99, P. aeruginosa ATCC 15442, 0.037% BHI [2, 16]	MMC99, P. aeruginosa ATCC 15442, 50% h.i. SWF [2, 16]	MMC99, MRSA ATCC 33591, 0.037% BHI [9]	MMC99, MRSA ATCC 33591, 50% h.i. SWF [9]	also measured
GW(Br)FKKTFHKVSHAVKSGIHA [CEN1 HC-Br (1–20), C-terminal truncated variant of CEN1 HC-Br]	–	–	–	–	–	–	–	–	–	–	–	–	–	–	–	–	–	S. aureus MMC99, 0.037% BHI + 85 mM NaCl [1, 13]: >200 mg/L; S. aureus MMC99, 0.037% BHI + 150 mM NaCl [1, 14]: >200 mg/L; S. aureus MMC99, 0.037% BHI ([1]; Table 2 screen, medium 0.037% BHI, ≥99% reduction of bacteria, 2 h at 37°C, tested up to 200 mg/L, duplicates, maximum value from at least two independent experiments): 12.5 mg/L; S. aureus MMC99, 0.037% BHI with 85 mM or 150 mM NaCl ([1]; text summary over both NaCl concentrations of Table 2a): ≥ 200 mg/L; P. aeruginosa MMC99, 0.037% BHI + 85 mM NaCl [2, 13]: 12.5 mg/L; P. aeruginosa MMC99, 0.037% BHI + 150 mM NaCl [2, 14]: 25 mg/L; P. aeruginosa MMC99, 0.037% BHI ([2]; Table 2 screen, medium 0.037% BHI, 2 h at 37°C, up to 200 mg/L, duplicates, maximum of at least two independent experiments): 12.5 mg/L; P. aeruginosa MMC99, 0.037% BHI with 85 mM or 150 mM NaCl ([2]; text summary over both NaCl concentrations of Table 2b, compared to 0.037% BHI only): 12.5 to 100.0 mg/L
CC(=O)O[C@H]1C[C@@]2(C)[C@@H](C[C@@H](O)[C@H]3[C@@]4(C)CC[C@@H](O)[C@@H](C)[C@@H]4CC[C@@]32C)/C1=C(\CCC=C(C)C)C(=O)O [fusidic acid]	>200 mg/L	>200 mg/L	>200 mg/L	>200 mg/L	>200 mg/L	>200 mg/L	>200 mg/L	>200 mg/L	6.3 mg/L	6.3 mg/L	>200 mg/L	>200 mg/L	6.3 mg/L	>200 mg/L	>200 mg/L	6.3 mg/L	6.3 mg/L	–
C/C(=C\C(=O)OCCCCCCCCC(=O)O)C[C@@H]1OC[C@H](C[C@@H]2O[C@H]2[C@@H](C)[C@H](C)O)[C@@H](O)[C@H]1O [mupirocin, Mupirocin]	>200 mg/L	>200 mg/L	>200 mg/L	>200 mg/L	>200 mg/L	>200 mg/L	6.3 mg/L	3.1 mg/L	3.1 mg/L	3.1 mg/L	>200 mg/L	>200 mg/L	3.1 mg/L	>200 mg/L	>200 mg/L	3.1 mg/L	3.1 mg/L	Concentration killing ≥99% of the bacteria (MMC99), day 14 [10, 17]: 24 mg/L; Concentration killing ≥99% of the bacteria (MMC99), day 0 [10, 18]: 3 mg/L; MMC99, P. acnes ATCC 6919, 0.037% BHI ([11]; 0.037% BHI): >200 mg/L; MMC99, P. acnes ATCC 6919, 50% h.i. SWF ([11]; 50% h.i. SWF): >200 mg/L; MMC99, S. aureus ATCC 12600, 0.037% BHI ([1]; Table 3 panel, 0.037% BHI, up to 200 mg/L, duplicates, maximum of at least two independent experiments, comparators Bactroban 2% ointment, Fucidin 2% cream): 3.1 mg/L; Concentration killing ≥99% of the bacteria (MMC99), day 14 [12, 17]: > 384 mg/L; Concentration killing ≥99% of the bacteria (MMC99), day 0 [12, 18]: 3 mg/L
